Results taken from patent publication US11339171B2, “MDM2 inhibitors” (Gan & Lee Pharmaceuticals, priority 2017, dated 2022).
“And” between values parts separate entries of the source, which are not always exact repeats. Equal values may be shown once. Read-outs that look alike come from different tables or passages of the source.

Columns and labels:
[1] = system: human osteosarcoma cell line SJSA-1; assay: Inhibition of proliferation of human osteosarcoma cell line SJSA-1 (DAPI staining, In Cell Analyzer); settings: Homo sapiens, SJSA-1, 72 h, read-out: IC50 (nM), inhibitory activity on proliferation of human osteosarcoma cell line SJSA-1, SJSA-1, incubated 72 h
MDM2 = target: T1, MDM2 (Homo sapiens, UniProt Q00987); assay: Inhibition test of MDM2-P53 (GST-MDM2, Biotin-P53, Anti-GST-Tb, SA-XL665); format: binding
T1 construct: made in house
Summary of the method: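 HTRF-type assay using 4 nM GST-MDM2 (final), Biotin-P53, SA-XL665 and anti-GST-Tb in PBS with 0.1% BSA, 5 mM DTT and 1 mM AEBSF. Compounds in 5-fold serial dilutions over twelve points; incubation 90 min at 25° C with shaking before plate-reader read-out.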

[2] = Pharmacokinetics in ICR mice after intravenous and intragastric administration; format: in vivo; settings: for MRT last: read-out: MRT(0-t); for MRT inf: read-out: MRT(0-∞); for Vd: read-out: Vz
Summary of the method: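 Plasma concentrations by LC-MS/MS (range 1 to 2000 ng/ml) following single intravenous (2 mg/kg) or oral gavage (5 mg/kg) dosing of fasted male ICR mice, three per group. Vehicle 5% DMSO + 40% PEG400 + 55% (10% HP-β-CD in saline); standard PK parameters including bioavailability calculated.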

[3] = ICR mice, IV 2 mg/kg, individual animal, 2 mg/kg
[4] = ICR mice, PO 5 mg/kg, individual animal, 5 mg/kg
[5] = male, ICR, mouse, plasma, iv, 2 mg/kg, ICR mice, IV 2 mg/kg, individual animal
[6] = male, ICR, mouse, plasma, iv, 2 mg/kg, ICR mice, IV 2 mg/kg, individual animal, read-out: AUC(0-t)
[7] = male, ICR, mouse, plasma, iv, 2 mg/kg, ICR mice, IV 2 mg/kg, individual animal, read-out: Cmax
[8] = male, ICR, mouse, plasma, iv, 2 mg/kg, ICR mice, IV 2 mg/kg, individual animal, read-out: t1/2 (converted)
[9] = male, ICR, mouse, plasma, iv, 2 mg/kg, ICR mice, IV 2 mg/kg, mean of 3 animals
[10] = male, ICR, mouse, plasma, iv, 2 mg/kg, ICR mice, IV 2 mg/kg, mean of 3 animals, read-out: AUC(0-t)
[11] = male, ICR, mouse, plasma, iv, 2 mg/kg, ICR mice, IV 2 mg/kg, mean of 3 animals, read-out: Cmax
[12] = male, ICR, mouse, plasma, iv, 2 mg/kg, ICR mice, IV 2 mg/kg, mean of 3 animals, read-out: Tmax
[13] = male, ICR, mouse, plasma, iv, 2 mg/kg, ICR mice, IV 2 mg/kg, mean of 3 animals, read-out: t1/2 (converted)
[14] = male, ICR, mouse, plasma, po, 5 mg/kg, ICR mice, PO 5 mg/kg, individual animal
[15] = male, ICR, mouse, plasma, po, 5 mg/kg, ICR mice, PO 5 mg/kg, individual animal, read-out: AUC(0-t)
[16] = male, ICR, mouse, plasma, po, 5 mg/kg, ICR mice, PO 5 mg/kg, individual animal, read-out: Tmax
[17] = male, ICR, mouse, plasma, po, 5 mg/kg, ICR mice, PO 5 mg/kg, individual animal, read-out: t1/2 (converted)
[18] = male, ICR, mouse, plasma, po, 5 mg/kg, ICR mice, PO 5 mg/kg, mean of 3 animals
[19] = male, ICR, mouse, plasma, po, 5 mg/kg, ICR mice, PO 5 mg/kg, mean of 3 animals, read-out: AUC(0-t)
[20] = male, ICR, mouse, plasma, po, 5 mg/kg, ICR mice, PO 5 mg/kg, mean of 3 animals, read-out: Cmax
[21] = male, ICR, mouse, plasma, po, 5 mg/kg, ICR mice, PO 5 mg/kg, mean of 3 animals, read-out: Tmax
[22] = male, ICR, mouse, plasma, po, 5 mg/kg, ICR mice, PO 5 mg/kg, mean of 3 animals, read-out: t1/2 (converted)
[23] = male, ICR, mouse, plasma, po, 5 mg/kg, oral intragastric administration 5 mg/kg, read-out: AUC0-t
[24] = male, ICR, mouse, plasma, po, 5 mg/kg, oral intragastric administration 5 mg/kg, read-out: half-life (converted)
[25] = male, mouse, plasma, ICR mice, PO 5 mg/kg vs IV 2 mg/kg, from mean values, read-out: F* (bioavailability)

T1 sequence (Q00987 whole entry): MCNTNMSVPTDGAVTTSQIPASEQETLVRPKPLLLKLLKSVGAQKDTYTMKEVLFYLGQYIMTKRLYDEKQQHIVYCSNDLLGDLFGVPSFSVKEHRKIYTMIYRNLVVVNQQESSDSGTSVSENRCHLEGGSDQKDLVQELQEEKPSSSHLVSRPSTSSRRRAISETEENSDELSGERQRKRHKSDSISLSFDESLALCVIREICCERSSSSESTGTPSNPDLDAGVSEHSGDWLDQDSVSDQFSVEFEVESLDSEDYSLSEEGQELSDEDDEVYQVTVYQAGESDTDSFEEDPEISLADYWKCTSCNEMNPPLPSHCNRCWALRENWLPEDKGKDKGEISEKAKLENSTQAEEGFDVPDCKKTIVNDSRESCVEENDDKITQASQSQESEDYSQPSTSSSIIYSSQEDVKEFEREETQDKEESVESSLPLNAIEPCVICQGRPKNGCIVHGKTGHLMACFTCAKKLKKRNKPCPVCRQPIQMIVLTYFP

COc1cc(C(C)C)ccc1-c1nc2c(n1C(C)C)[C@@]1(C(=O)Nc3cc(Cl)ccc31)N(c1cc(Cl)ccc1C)C2=O [Example S-32, (S)-6-chloro-5′-(5-chloro-2-methylphenyl)-3′-isopropyl-2′-(4-isopropyl-2-methoxyphenyl)-3′H-spiro[dihydroindole-3,4′-pyrrolo[3,4-d]imidazole]-2,6′(5′H)-dione]
IC50 [1]: 10.1 nM
IC50 (MDM2): 3.89 nM
AUC(0-t) [2, 3]: 3859.04 ng·h/mL and 4699.29 ng·h/mL
AUC(0-∞) [2, 3]: 4004.98 ng·h/mL and 4854.66 ng·h/mL
CL [2, 3]: 8.323 mL/min/kg and 6.8663 mL/min/kg
Cmax [2, 3]: 1902.13 ng/mL and 2766.01 ng/mL
MRT(0-t) [2, 3]: 1.29 h and 1.32 h
MRT(0-∞) [2, 3]: 1.53 h
Tmax [2, 3]: 0.50 h and 0.08 h and 0.25 h
Vz [2, 3]: 0.90833 L/kg and 0.7302 L/kg
t1/2 [2, 3]: 1.26 h and 1.23 h
AUC(0-t) [2, 4]: 10704.89 ng·h/mL and 8458.06 ng·h/mL
AUC(0-∞) [2, 4]: 11027.74 ng·h/mL and 9168.53 ng·h/mL
Cmax [2, 4]: 1578.70 ng/mL and 3356.31 ng/mL and 2518.33 ng/mL
MRT(0-t) [2, 4]: 2.24 h and 2.48 h
MRT(0-∞) [2, 4]: 2.48 h and 3.14 h
t1/2 [2, 4]: 1.51 h and 2.07 h
AUC(0-inf) [2, 5]: 7630 ng·h/mL
clearance [2, 5]: 4.37 mL/min/kg
AUC(0-t) [2, 6]: 7200 ng·h/mL
Cmax [2, 7]: 2450 ng/mL
MRT last [2, 5]: 1.61 h
MRT inf [2, 5]: 1.97 h
Vd [2, 5]: 0.543 L/kg
half-life [2, 8]: 1.44 h
AUC(0-inf) [2, 9]: 5500 ng·h/mL
clearance [2, 9]: 6.52 mL/min/kg
AUC(0-t) [2, 10]: 5250 ng·h/mL
Cmax [2, 11]: 2370 ng/mL
MRT last [2, 9]: 1.41 h
MRT inf [2, 9]: 1.68 h
Tmax [2, 12]: 0.278 h
Vd [2, 9]: 0.727 L/kg
half-life [2, 13]: 1.31 h
AUC(0-inf) [2, 14]: 7100 ng·h/mL
AUC(0-t) [2, 15]: 6020 ng·h/mL
MRT last [2, 14]: 2.79 h
MRT inf [2, 14]: 4.22 h
Tmax [2, 16]: 1 h
half-life [2, 17]: 2.89 h
AUC(0-inf) [2, 18]: 9100 ng·h/mL
AUC(0-t) [2, 19]: 8390 ng·h/mL
Cmax [2, 20]: 2480 ng/mL
MRT last [2, 18]: 2.5 h
MRT inf [2, 18]: 3.28 h
Tmax [2, 21]: 1 h
half-life [2, 22]: 2.16 h
AUC(0-t) [2, 23]: 8390 ng·h/mL
half-life [2, 24]: 2.16 h
bioavailability [2, 25]: 63.9%

COc1ncc(-c2nc3c(n2C(C)C)[C@@]2(C(=O)Nc4cc(Cl)ccc42)N(c2cc(Cl)ccc2F)C3=O)c(OC)n1 [Example S-44, (S)-6-chloro-5′-(5-chloro-2-fluorophenyl)-2′-(2,4-dimethoxypyrimidin-5-yl)-3′-isopropyl-3′H-spiro[dihydroindole-3,4′-pyrrolo[3,4-d]imidazole]-2,6′(5′H)-dione]
IC50 [1]: 11.9 nM
IC50 (MDM2): 1.18 nM
AUC(0-t) [2, 3]: 2703.63 ng·h/mL and 2987.84 ng·h/mL
AUC(0-∞) [2, 3]: 3052.47 ng·h/mL and 3364.67 ng·h/mL
CL [2, 3]: 10.92 mL/min/kg and 9.91 mL/min/kg
Cmax [2, 3]: 826.58 ng/mL and 951.21 ng/mL
MRT(0-t) [2, 3]: 1.82 h
MRT(0-∞) [2, 3]: 2.61 h and 2.56 h
Vz [2, 3]: 1.82 L/kg and 1.64 L/kg
t1/2 [2, 3]: 1.92 h and 1.91 h
AUC(0-t) [2, 4]: 5161.46 ng·h/mL and 6287.89 ng·h/mL
AUC(0-∞) [2, 4]: 5447.83 ng·h/mL and 6556.64 ng·h/mL
Cmax [2, 4]: 1097.85 ng/mL and 1204.30 ng/mL
MRT(0-t) [2, 4]: 2.81 h and 3.08 h
MRT(0-∞) [2, 4]: 3.22 h and 3.38 h
Tmax [2, 4]: 2.00 h
t1/2 [2, 4]: 1.77 h and 1.65 h
AUC(0-inf) [2, 5]: 2770 ng·h/mL
clearance [2, 5]: 12.1 mL/min/kg
AUC(0-t) [2, 6]: 2510 ng·h/mL
Cmax [2, 7]: 872 ng/mL
MRT last [2, 5]: 1.71 h
MRT inf [2, 5]: 2.35 h
Tmax ([2]; male, ICR, mouse, plasma, iv, 2 mg/kg, ICR mice, IV 2 mg/kg, individual animal, read-out: Tmax): 0.08 h
Vd [2, 5]: 1.86 L/kg
half-life [2, 8]: 1.79 h
AUC(0-inf) [2, 9]: 3060 ng·h/mL
clearance [2, 9]: 11 mL/min/kg
AUC(0-t) [2, 10]: 2730 ng·h/mL
Cmax [2, 11]: 883 ng/mL
MRT last [2, 9]: 1.77 h
MRT inf [2, 9]: 2.51 h
Tmax [2, 12]: 0.083 h
Vd [2, 9]: 1.77 L/kg
half-life [2, 13]: 1.87 h
AUC(0-inf) [2, 14]: 8960 ng·h/mL
AUC(0-t) [2, 15]: 7900 ng·h/mL
Cmax ([2]; male, ICR, mouse, plasma, po, 5 mg/kg, ICR mice, PO 5 mg/kg, individual animal, read-out: Cmax): 1360 ng/mL
MRT last [2, 14]: 3.17 h
MRT inf [2, 14]: 4.17 h
Tmax [2, 16]: 1 h
half-life [2, 17]: 2.56 h
AUC(0-inf) [2, 18]: 6990 ng·h/mL
AUC(0-t) [2, 19]: 6450 ng·h/mL
Cmax [2, 20]: 1220 ng/mL
MRT last [2, 18]: 3.02 h
MRT inf [2, 18]: 3.59 h
Tmax [2, 21]: 1.33 h
half-life [2, 22]: 2 h
AUC(0-t) [2, 23]: 6450 ng·h/mL
half-life [2, 24]: 2 h
bioavailability ([2]; male, ICR, mouse, plasma, oral intragastric administration 5 mg/kg, read-out: bioavailability): 94.4%
bioavailability [2, 25]: 94.4%
